Legend:
field poppy (PAPRH) [1] = assay: Test 21 growth chamber, postemergence; assay type: in vivo, Papaver rhoeas; settings: 19 DAA; Cpd 2 alone 16 g a.i./ha
Method: A test was conducted to evaluate the effects on winter barley (HORVW, Hordeum vulgare L.), winter wheat (TRZAW, Triticum aestivum L.), and several weed species, of mixtures of Compound 2 with the commercial herbicide (2,4-dichlorophenoxy)acetic acid (2,4-D), an auxin mimic. […] Plants were treated postemergence at the 2-4 leaf growth stage, and each treatment was replicated one time. […] Plants were watered as needed. […] Results are from single replicates.

giant ragweed (AMBTR) = assay: Test 2 field trial, preemergence; assay type: in vivo, Ambrosia trifida; set-up: scale not given here
Excerpt: (§1) Corn seeds (hybrid ‘Pioneer 31G96’) were planted in mid spring season, 3.8 cm deep in a clay loam soil having 2% organic matter and a pH of 6.6. Plots were 6.1 m long by 3.0 m wide with rows spaced 76 cm apart. Seeds were spaced 15 cm apart within the rows. The field was managed using conventional tillage practices. […] A few of the weed species could not be evaluated at every timing. […] Results are the means of the three replicates.

[2] = tested on: tropical spiderwort (COMBE); assay: Test 12 field trial, preemergence; assay type: in vivo, Commelina benghalensis; set-up: scale not given here; settings: Cpd 2 or Cpd 1 62 g a.i./ha, Diuron 2000 g a.i./ha
Excerpt: In early-mid spring season, corn seeds (hybrid ‘Pioneer 3041’) were planted 5 cm deep and sugarcane nodes (variety RB-72.454) were planted 10 cm deep in separate plots in a clay soil having 2.6% organic matter and a pH of 5.6. Plots were 24 m long by 1.5 m wide with rows spaced 80 cm (corn) or 140 cm (sugarcane) apart. Corn seeds were spaced 15 cm apart and sugarcane nodes were spaced 10 cm apart within the rows. At the same time, weed seeds were broadcast over the surface of separate plots without a crop, one weed species per plot. The weed plots were rotary tilled to incorporate the weed seeds to a variety of depths. The field was managed using conventional tillage practices.

[3] = tested on: common lambsquarters (CHEAL); assay: Test 23 growth chamber, postemergence; assay type: in vivo, Chenopodium album; settings: 21 DAA
Method: (§2) A test was conducted to evaluate the effects on winter barley (HORVW, Hordeum vulgare L.), winter wheat (TRZAW, Triticum aestivum L.), and several weed species of mixtures of Compound 2 with the commercial herbicides (2,4-dichlorophenoxy)acetic acid (2,4-D) and (4-chloro-2-methylphenoxy)acetic acid (MCPA), auxin mimics. […] Plants were treated postemergence at the 2-4 leaf growth stage, and each treatment was replicated three times. […] Plants were watered as needed. […] Results are means of the three replicates.

morningglory (IPOSS) = assay: Test 7 field trial, preemergence; assay type: in vivo, Ipomoea L. spp.
Method: (§3) Plots were 7.6 m long by 3.0 m wide with rows spaced 76 cm apart. Seeds were spaced 15 cm apart within the rows. The field was managed using conventional tillage practices. […] Wild radish was evaluated 14 and 28 days after application. […] Results are the means of the three replicates.

corn (ZEAMD) = assay: Test 7 field trial, preemergence; assay type: in vivo, Zea mays ssp. indentata; settings: hybrid Pioneer 36B10, corn (Zea mays ssp. indentata), in vivo, 62 days after application
Method: as §3

field poppy (PAPRH) [4] = assay: Test 23 growth chamber, postemergence; assay type: in vivo, Papaver rhoeas; settings: 21 DAA
Method: as §2

Canada horseweed (ERICA) = assay: Test 9 field trial, emerged weeds before corn planting; assay type: in vivo, Erigeron canadensis; settings: g a.i./ha: Cpd 2 100, Glyphosate 1540, Paraquat 1150
Method: Corn seeds (hybrid ‘Pioneer 34M91 RR’) were planted in mid spring season, about 3.8 cm deep in a silty clay loam soil having a pH of 6.7. Plots were 9.1 m long by 3.0 m. The field was managed using no-till practices. […] Compound 2 and paraquat treatments, alone and in combination, also included a surfactant. Glyphosate, alone and with Compound 2, included ammonium sulfate in the treatment mixture. […] The effects on the weeds in the treated plots and untreated control plots were recorded 7, 14, 23, 30 and 57 days after application. Most of the weed species could not be evaluated at every timing. Corn response was only evaluated 57 days after application. […] Results are the means of the three replicates.

yellow nutsedge (CYPES) = assay: Test 2 field trial, preemergence; assay type: in vivo, Cyperus esculentus; set-up: scale not given here
Excerpt: as §1

Russian thistle (SASKR) = assay: Test 23 growth chamber, postemergence; assay type: in vivo, Salsola kali; settings: 21 DAA
Method: as §2

[5] = tested on: common lambsquarters (CHEAL); assay: Test 22 growth chamber, postemergence; assay type: in vivo, Chenopodium album; settings: 25 DAA
Method: A test was conducted to evaluate the effects on winter barley (HORVW, Hordeum vulgare L.), winter wheat (TRZAW, Triticum aestivum L.), and several weed species of mixtures of Compound 2 with the commercial herbicides (2,4-dichlorophenoxy)acetic acid (2,4-D) and (4-chloro-2-methylphenoxy)acetic acid (MCPA), auxin mimics. […] Plants were treated postemergence at the 2-4 leaf growth stage, except KCHSC, SASKR and STEME which were in the 4-8 leaf growth stage. Each treatment was replicated one time. […] Plants were watered as needed. […] Results are from single replicates.

[6] = 18 DAA, g a.i./ha: Cpd 2 25, Atrazine 250
[7] = 18 DAA, g a.i./ha: Cpd 2 50, Atrazine 500
[8] = 18 DAA, g a.i./ha: Cpd 2 75, Atrazine 750
[9] = 18 DAA, g a.i./ha: Cpd 2 100, Atrazine 1000
[10] = 18 DAA, g a.i./ha: Cpd 2 150, Atrazine 1500
[11] = 28 DAA, g a.i./ha: Cpd 2 25, Atrazine 250
[12] = 28 DAA, g a.i./ha: Cpd 2 50, Atrazine 500
[13] = 28 DAA, g a.i./ha: Cpd 2 75, Atrazine 750
[14] = 28 DAA, g a.i./ha: Cpd 2 100, Atrazine 1000

## COC(=O)c1nc(C2CC2)nc(N)c1Cl [Compound 2, methyl 6-amino-5-chloro-2-cyclopropyl-4-pyrimidinecarboxylate]
Field poppy (PAPRH) [1]
  Postemergence PAPRH Obs: 65
Giant ragweed (AMBTR); [6]
  AMBTR Obs: 10
Giant ragweed (AMBTR); [7]
  AMBTR Obs: 30
Giant ragweed (AMBTR); [8]
  AMBTR Obs: 10
Giant ragweed (AMBTR); [9]
  AMBTR Obs: 45
Giant ragweed (AMBTR); [10]
  AMBTR Obs: 65
Giant ragweed (AMBTR); [11]
  AMBTR Obs: 35
Giant ragweed (AMBTR); [12]
  AMBTR Obs: 30
Giant ragweed (AMBTR); [13]
  AMBTR Obs: 75
Giant ragweed (AMBTR); [14]
  AMBTR Obs: 70
[2]; 15 DAA
  COMBE Obs: 50
[2]; 29 DAA
  COMBE Obs: 40
[2]; 48 DAA
  COMBE Obs: 40
[2]; 61 DAA
  COMBE Obs: 40
[3]; Cpd 2 alone 4 g a.i./ha
  Postemergence CHEAL Obs: 53
[3]; Cpd 2 alone 8 g a.i./ha
  Postemergence CHEAL Obs: 55
[3]; Cpd 2 alone 16 g a.i./ha
  Postemergence CHEAL Obs: 55
Morningglory (IPOSS); 14 DAA, 125 g a.i./ha
  IPOSS Obs: 100%
Morningglory (IPOSS); 14 DAA, 250 g a.i./ha
  IPOSS Obs: 100%
Morningglory (IPOSS); 14 DAA, 500 g a.i./ha
  IPOSS Obs: 100%
Morningglory (IPOSS); 28 DAA, 125 g a.i./ha
  IPOSS Obs: 100%
Morningglory (IPOSS); 28 DAA, 250 g a.i./ha
  IPOSS Obs: 100%
Morningglory (IPOSS); 28 DAA, 500 g a.i./ha
  IPOSS Obs: 100%
Morningglory (IPOSS); 62 DAA, 125 g a.i./ha
  IPOSS Obs: 100%
Morningglory (IPOSS); 62 DAA, 500 g a.i./ha
  IPOSS Obs: 100%
Corn (ZEAMD)
  ZEAMD Obs: 0%
Field poppy (PAPRH) [4]; Cpd 2 alone 4 g a.i./ha
  Postemergence PAPRH Obs: 53
Field poppy (PAPRH) [4]; Cpd 2 alone 8 g a.i./ha
  Postemergence PAPRH Obs: 58
Field poppy (PAPRH) [4]; Cpd 2 alone 16 g a.i./ha
  Postemergence PAPRH Obs: 72
Canada horseweed (ERICA); 7 DAA
  ERICA Obs: 62%
Canada horseweed (ERICA); 14 DAA
  ERICA Obs: 68%
Canada horseweed (ERICA); 23 DAA
  ERICA Obs: 75%
Canada horseweed (ERICA); 30 DAA
  ERICA Obs: 83%
Canada horseweed (ERICA); 57 DAA
  ERICA Obs: 100%
Yellow nutsedge (CYPES); [6]
  CYPES Obs: 12
Yellow nutsedge (CYPES); [7]
  CYPES Obs: 18
Yellow nutsedge (CYPES); [8]
  CYPES Obs: 22
Yellow nutsedge (CYPES); [9]
  CYPES Obs: 25
Yellow nutsedge (CYPES); [10]
  CYPES Obs: 30
Yellow nutsedge (CYPES); [11]
  CYPES Obs: 0
Yellow nutsedge (CYPES); [12]
  CYPES Obs: 0
Yellow nutsedge (CYPES); [13]
  CYPES Obs: 0
Yellow nutsedge (CYPES); [14]
  CYPES Obs: 0
Yellow nutsedge (CYPES); 28 DAA, g a.i./ha: Cpd 2 150, Atrazine 1500
  CYPES Obs: 0
Yellow nutsedge (CYPES); 55 DAA, g a.i./ha: Cpd 2 25, Atrazine 250
  CYPES Obs: 0
Yellow nutsedge (CYPES); 55 DAA, g a.i./ha: Cpd 2 50, Atrazine 500
  CYPES Obs: 0
Yellow nutsedge (CYPES); 55 DAA, g a.i./ha: Cpd 2 75, Atrazine 750
  CYPES Obs: 0
Yellow nutsedge (CYPES); 55 DAA, g a.i./ha: Cpd 2 100, Atrazine 1000
  CYPES Obs: 0
Yellow nutsedge (CYPES); 55 DAA, g a.i./ha: Cpd 2 150, Atrazine 1500
  CYPES Obs: 10
Russian thistle (SASKR); Cpd 2 alone 4 g a.i./ha
  Postemergence SASKR Obs: 55
Russian thistle (SASKR); Cpd 2 alone 8 g a.i./ha
  Postemergence SASKR Obs: 63
Russian thistle (SASKR); Cpd 2 alone 16 g a.i./ha
  Postemergence SASKR Obs: 72
[5]; Cpd 2 alone 4 g a.i./ha
  Postemergence CHEAL Obs: 50
[5]; Cpd 2 alone 8 g a.i./ha
  Postemergence CHEAL Obs: 50
[5]; Cpd 2 alone 16 g a.i./ha
  Postemergence CHEAL Obs: 65

Reference: patent US20100285959A1, “HERBICIDAL MIXTURES” (priority 2006, published 2010)
